The source of these data is patent US20260250325A1, “Antiviral Polypeptide Membrane Fusion Inhibitor, and Preparation Method and Application Thereof” (priority 2025, published 2026).

The structures appear in SMILES notation. Where a SMILES comes first, the peptide text is derived from it. The star is where a group is joined. Succinyl(4-O-cholesteryl) = CC(C)CCC[C@@H](C)[C@H]1CC[C@H]2[C@@H]3CC=C4C[C@@H](OC(=O)CCC(=O)*)CC[C@]4(C)[C@H]3CC[C@]12C

One assay deals with hPIV3 C243 virus strain. Format: cell-based, hPIV. The following applies: LLC-MK2 cells, hPIV3 C243, plaque reduction; read-out: EC50 against hPIV3 virus. How it is done: Rhesus monkey kidney cells (LLC-MK2) were sourced from the ATCC, with a catalog number CCL-7.1. The cells were cultured in a DMEM culture solution in which 10% fetal bovine serum, 1% non-essential amino acids, 1% sodium pyruvate, 1% L-glutamine, 100 U/ml penicillin, and 100 μg/ml streptomycin were added.
An HPIV-3 plaque experiment culture medium consisted of a DMEM culture solution added with 2% fetal bovine serum, 1% non-essential amino acids, 1% sodium pyruvate, 1% L-glutamine, 100 U/ml penicillin, and 100 μg/ml streptomycin.
The hPIV Type 3 (hPIV3 C243) was sourced from the ATCC, with a catalog number VR-93.
This study used the plaque reduction experiment to detect the in-vitro activity of the test sample against the hPIV3 C243 virus strain, and Human Anti-HPIV3 Monoclonal Antibody, clone PIA174 was an experimental system control. The test sample and a system experimental antibody were tested at 8 concentrations in duplicated wells.
The LLC-MK2 cells were digested with trypsin and then diluted to a concentration of 400,000 cells per milliliter by using a cell culture solution containing 2% serum. The diluted cells were added to a 96-well cell test board, with 100 μL per well, corresponding to 40,000 cells per well. The cells were cultured overnight in a 37° C. incubator with 5% CO2.
On the next day, the sample diluted at a fold ratio and an equal volume of virus (approximately 200 PFU per well) were well mixed and incubated at 37° C. in 5% CO2 for 1 hour. Then, the culture solution in the 96-well cell test board was discarded, the sample virus mixed solution (100 μL) was added to the 96-well cell culture plate, and incubated at 37° C. in 5% CO2 for 2 hours. After 2 h, the sample virus mixed solution was discarded, 200 μL of an experiment culture medium containing the test sample with a corresponding concentration was added, and the culture solution contained 0.8% CMC. A final concentration of DMSO in the culture solution was 0.5%. A control antibody was directly added to the experiment culture solution containing 0.8% CMC. A cell control (cells, without compound treatment or viral infection) and a viral control (cell infection virus, without compound treatment) were set. The cells were cultured for 1 day in the 37° C. incubator with 5% CO2.
The cells were fixed with 4% paraformaldehyde, and then permeabilization was performed with 0.5% Triton X-100. After the plate was washed with DPBS, a hPIV specific antibody (1:2000 dilution) was added and incubated at 37° C. for 1.5 h. Then, a secondary antibody (1:500 dilution) was added and incubated at 37° C. for 1 hour. The secondary antibody was discarded, a TrueBlue solution was added, dyeing was performed for approximately 10 minutes; and the plate was washed with running water and then air-dried, and the number of spots in each well was counted by using a microplate imaging counter.
Raw data was used for calculating the antiviral activity of the samples, and a calculation formula was shown as follows.
% inhibition rate=100−(sample value-cell control average value)/(virus control average value-cell control average value)×100
Non-linear fitting analysis was performed on the inhibition rate of the sample by using GraphPad Prism (version 10), so as to calculate an EC50 value for the sample. A fitting formula was log (inhibitor) vs. response-Variable slope (four parameters).

Another assay concerns the target T1, hMPV-N46 (127-172) (Human metapneumovirus, UniProt Q6WB98).
T1 construct: hMPV-N46 (127-172)
The experiment in a line: SPR affinity to hMPV-N46 coupled on CM5 chip. Format: binding. How it is done:
hMPV and hPIV were two viruses having a typical Class I fusion protein-F protein. An F protein precursor F0 was cracked into F1 and F2 subunits. […] When the compound flowed through a chip surface, changes in an SPR signal were monitored in real time, binding and dissociation processes were recorded, and a binding rate constant (ka) and a dissociation rate constant (kd) were further obtained through kinetic analysis, thereby calculating an equilibrium dissociation constant (KD=kd/ka).
A CM5 chip with a catalog number 29149603, an amino coupling reagent kit with a catalog number BR100050, HBS-EP+Buffer (10×), sodium acetate (pH 4.0), and a 10 mM glycine-HCl buffer (pH 2.0) were all purchased from GE Health.
CM5 chip coupling: Channels 2 and 4 of the CM5 chip were activated for 7 min by using a freshly-prepared mixture of 50 mM Hydroxy succinimide (NHS) and 200 mM 1-(3-Dimethylaminopropyl)-3-ethylcarbodiimide (EDC) according to 1:1; and then, hMPV-N46 or hPIV-N51 was diluted and dissolved with sodium acetate with 4.0 pH to a concentration of 30 μM, with a flow rate of 10 μl/min and time of 600 s. An experimental buffer was HBS-EP+buffer (1×). Finally, the chip was blocked with 1 M ethanolamine. The instrument was set to a temperature of 25° C.
Affinity detection: the buffer used in the experiment was HBS-EP+buffer (1×), and a multi-cycle dynamic mode was used. Channels 1 and 3 of the chip served as blank reference channels; polypeptides to be detected sequentially flowed through Channels 2 and 4 at concentrations of 0 μM, 0.04 µM, 0.12 µM, 0.37 μM, 1.11 µM, 3.33 µM, 10 µM, and 30 μM; the flow rate was 30 μl/min, binding was performed for 180 s, and dissociation was performed for 120 s. Finally, the chip was regenerated by injecting 10 mM glycine (pH 2.0). The instrument was set to a temperature of 25° C.

T1 sequence (Q6WB98 127-172): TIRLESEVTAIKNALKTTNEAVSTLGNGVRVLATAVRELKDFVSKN

For orientation: EC50 means the concentration needed to bring the measured effect to its halfway point. In general, Kd refers to the equilibrium constant for the complex coming apart. High values mean a looser complex, low ones a tighter complex. With `CC[C@H](C)[C@H](NC(=O)[C@H](CCCCN)NC(=O)[C@H](CCCCN)NC(=O)[C@H](CC(C)C)NC(=O)[C@H](CO)NC(=O)[C@H](CCC(=O)O)NC(=O)[C@H](CCC(=O)O)NC(=O)[C@@H](NC(=O)[C@H](CCCCN)NC(=O)[C@H](CCCCN)NC(=O)[C@H](CC(N)=O)NC(=O)[C@@H](NC(=O)[C@H](CCC(=O)O)NC(=O)[C@H](CCC(=O)O)NC(=O)[C@@H](NC(=O)[C@H](CCCCN)NC(=O)[C@H](CCCCN)NC(=O)[C@H](CC(=O)O)NC(=O)[C@H](Cc1ccccc1)NC(=O)[C@H](CCC(=O)O)NC(=O)[C@H](CC(=O)O)NC(=O)[C@H](CO)NC(C)=O)[C@@H](C)CC)C(C)C)[C@@H](C)CC)C(=O)N[C@@H](CCC(=O)O)C(=O)N[C@@H](CCC(=O)O)C(=O)N[C@@H](CO)C(=O)N[C@@H](CC(=O)O)C(=O)N[C@@H](CCCCN)C(=O)N[C@@H](CCCCN)C(=O)N[C@@H](CC(C)C)C(=O)NCC(=O)N[C@@H](CO)C(=O)NCC(=O)N[C@@H](CO)C(=O)NCC(=O)N[C@@H](CCCCNC(=O)CCC(=O)O[C@H]1CC[C@@]2(C)C(=CC[C@H]3[C@@H]4CC[C@H]([C@H](C)CCCC(C)C)[C@@]4(C)CC[C@@H]32)C1)C(N)=O` [Compound 20] (Ac-SDEFDKKIEEVNKKIEESLKKIEESDKKLGSGSGK(Succinyl(4-O-cholesteryl))-NH2), the concentration giving a half-maximal response (EC50) in the assay on hPIV3 C243 virus strain stood at 59.5 nM. In addition, binding at hMPV-N46 (127-172) was characterised by a dissociation constant (Kd) of 19.1 µM.
For `CC[C@H](C)[C@H](NC(=O)[C@H](CCCCN)NC(=O)[C@H](CCC(=O)O)NC(=O)[C@H](CC(C)C)NC(=O)[C@H](CO)NC(=O)[C@H](CCC(N)=O)NC(=O)[C@H](CC(N)=O)NC(=O)[C@@H](NC(=O)[C@H](CCCCN)NC(=O)[C@H](CCC(=O)O)NC(=O)[C@H](CC(N)=O)NC(=O)[C@@H](NC(=O)[C@H](CCC(N)=O)NC(=O)[C@H](CO)NC(=O)[C@H](C)NC(=O)[C@H](CC(=O)O)NC(=O)[C@H](Cc1ccccc1)NC(=O)[C@@H](NC(=O)[C@H](CC(C)C)NC(=O)[C@H](CCC(=O)O)NC(=O)[C@H](CC(=O)O)NC(=O)[C@H](Cc1ccc(O)cc1)NC(C)=O)C(C)C)C(C)C)[C@@H](C)CC)C(=O)N[C@@H](CCCNC(=N)N)C(=O)N[C@@H](CCCCN)C(=O)N[C@@H](CO)C(=O)N[C@@H](CC(=O)O)C(=O)N[C@@H](CCC(=O)O)C(=O)N[C@@H](CC(C)C)C(=O)N[C@@H](CC(C)C)C(=O)N[C@@H](Cc1c[nH]cn1)C(=O)N[C@@H](CC(N)=O)C(=O)N[C@H](C(=O)NCC(=O)N[C@@H](CO)C(=O)NCC(=O)N[C@@H](CO)C(=O)NCC(=O)N[C@@H](CCCCNC(=O)CCC(=O)O[C@H]1CC[C@@]2(C)C(=CC[C@H]3[C@@H]4CC[C@H]([C@H](C)CCCC(C)C)[C@@]4(C)CC[C@@H]32)C1)C(N)=O)C(C)C` [Compound 25] (Ac-YDELVFDASQVNEKINQSLEKIRKSDELLHNVGSGSGK(Succinyl(4-O-cholesteryl))-NH2), in that order: 29.4 nM and 21.1 µM.
